Experimental data: PubChem BioAssay (NCI)
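Compound exposure: 48 hours, 5 concentrations, 96-well plates. GI50: concentration for 50% inhibition of growth. TGI: concentration producing complete growth inhibition.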

Columns and labels:
Test in all cases: NCI anticancer screen, dose series, 48 h
[1] = test system: 786-0 renal
[2] = test system: A498 renal
[3] = test system: A549 NSCLC
[4] = test system: ACHN renal
[5] = test system: BT-549 breast
[6] = test system: CAKI-1 renal
[7] = test system: CCRF-CEM leukemia
[8] = test system: COLO 205 colon
[9] = test system: DLD-1 colon
[10] = test system: DMS 273 small cell lung
[11] = test system: DU-145 prostate
[12] = test system: EKVX NSCLC
[13] = test system: HCC-2998 colon
[14] = test system: HCT-116 colon
[15] = test system: HCT-15 colon
[16] = test system: HL-60(TB) leukemia
[17] = test system: HOP-18 NSCLC
[18] = test system: HOP-62 NSCLC
[19] = test system: HOP-92 NSCLC
[20] = test system: HS 578T breast
[21] = test system: HT29 colon
[22] = test system: IGROV1 ovarian
[23] = test system: K-562 leukemia
[24] = test system: KM12 colon
[25] = test system: KM20L2 colon
[26] = test system: LOX IMVI melanoma
[27] = test system: M14 melanoma
[28] = test system: M19-MEL melanoma
[29] = test system: MALME-3M melanoma
[30] = test system: MCF7 breast
[31] = test system: MDA-MB-231 breast
[32] = test system: MDA-MB-435
[33] = test system: MDA-N
[34] = test system: MOLT-4 leukemia
[35] = test system: NCI-H226 lung
[36] = test system: NCI-H23 lung
[37] = test system: NCI-H460 lung
[38] = test system: NCI-H522 lung
[39] = test system: NCI/ADR-RES ovarian
[40] = test system: OVCAR-3 ovarian
[41] = test system: OVCAR-4 ovarian
[42] = test system: OVCAR-5 ovarian
[43] = test system: OVCAR-8 ovarian
[44] = test system: PC-3 prostate
[45] = test system: RPMI-8226 leukemia
[46] = test system: RXF 393 renal
[47] = test system: SF-268 CNS
[48] = test system: SF-295 CNS
[49] = test system: SF-539 CNS
[50] = test system: SK-MEL-2 melanoma
[51] = test system: SK-MEL-28 melanoma
[52] = test system: SK-MEL-5 melanoma
[53] = test system: SK-OV-3 ovarian
[54] = test system: SN12C renal
[55] = test system: SNB-19 CNS
[56] = test system: SNB-75 CNS
[57] = test system: SNB-78 CNS
[58] = test system: SR leukemia
[59] = test system: SW-620 colon
[60] = test system: T-47D breast
[61] = test system: TK-10 renal
[62] = test system: U251 CNS
[63] = test system: UACC-257 melanoma
[64] = test system: UACC-62 melanoma
[65] = test system: UO-31 renal
[66] = test system: XF 498 CNS
[67] = test system: LXFL 529 NSCLC

Compound: O=C1/C(=C/c2ccc(O)c(O)c2)CCC/C1=C\c1ccc(O)c(O)c1
- TGI [1]: 15.5 µM
- TGI [2]: 21.1 µM
- TGI [3]: > 50.2 µM
- TGI [4]: 11 µM
- TGI [5]: > 33.9 µM
- TGI [6]: 12.5 µM
- TGI [7]: > 25.4 µM
- TGI [8]: > 64 µM
- TGI [9]: 7.22 µM
- TGI [10]: 7.2 µM
- TGI [11]: 17.5 µM
- TGI [12]: 32.4 µM
- TGI [13]: 11.5 µM
- TGI [14]: 7.17 µM
- TGI [15]: 33.3 µM
- TGI [16]: > 27.9 µM
- TGI [17]: 10.4 µM
- TGI [18]: 14.5 µM
- TGI [19]: 13.2 µM
- TGI [20]: > 39.9 µM
- TGI [21]: 21.2 µM
- TGI [22]: 15.9 µM
- TGI [23]: > 60.1 µM
- TGI [24]: 13.8 µM
- TGI [25]: 23.8 µM
- TGI [26]: 7.68 µM
- TGI [27]: 18.4 µM
- TGI [28]: 12.3 µM
- TGI [29]: 7.05 µM
- TGI [30]: > 48.2 µM
- TGI [31]: 37.4 µM
- TGI [32]: 16.7 µM
- TGI [33]: 14.6 µM
- TGI [34]: > 44 µM
- TGI [35]: 9.43 µM
- TGI [36]: 11.3 µM
- TGI [37]: 20.1 µM
- TGI [38]: 2.22 µM
- TGI [39]: 23.8 µM
- TGI [40]: 17.8 µM
- TGI [41]: 41.9 µM
- TGI [42]: 31.2 µM
- TGI [43]: 4.42 µM
- TGI [44]: 19 µM
- TGI [45]: > 44.7 µM
- TGI [46]: 9.5 µM
- TGI [47]: 14.7 µM
- TGI [48]: 22.1 µM
- TGI [49]: 8.99 µM
- TGI [50]: 13.1 µM
- TGI [51]: 11.8 µM
- TGI [52]: 3.81 µM
- TGI [53]: 20.7 µM
- TGI [54]: 24.9 µM
- TGI [55]: 29.1 µM
- TGI [56]: 12.9 µM
- TGI [57]: 8.19 µM
- TGI [58]: > 89.8 µM
- TGI [59]: 23.3 µM
- TGI [60]: > 48.1 µM
- TGI [61]: 14.9 µM
- TGI [62]: 15.7 µM
- TGI [63]: 17.4 µM
- TGI [64]: 30.2 µM
- TGI [65]: 4.34 µM
- TGI [66]: 9.93 µM

Compound: CC(=O)[CH-]C(=O)c1ccccc1.CC(=O)[CH-]C(=O)c1ccccc1.CN(C)c1ccc([O-])cc1.CN(C)c1ccc([O-])cc1.Cl.[Ti+4]
- GI50 [1]: 22.8 µM
- TGI [1]: > 31.6 µM
- GI50 [2]: 31.1 µM
- TGI [2]: > 100 µM
- GI50 [3]: 29 µM
- TGI [3]: > 31.6 µM
- GI50 [4]: 16.9 µM
- TGI [4]: > 31.6 µM
- GI50 [6]: 21 µM
- TGI [6]: > 31.6 µM
- GI50 [7]: 9.65 µM
- TGI [7]: > 31.6 µM
- GI50 [8]: 14.9 µM
- TGI [8]: 22.5 µM
- GI50 [9]: 15.6 µM
- TGI [9]: > 31.6 µM
- GI50 [12]: 24.6 µM
- TGI [12]: > 31.6 µM
- GI50 [13]: 20.7 µM
- TGI [13]: > 31.6 µM
- GI50 [14]: 18.1 µM
- TGI [14]: > 31.6 µM
- GI50 [15]: 25.5 µM
- TGI [15]: > 31.6 µM
- GI50 [16]: 20.9 µM
- TGI [16]: > 31.6 µM
- GI50 [17]: 23.1 µM
- TGI [17]: > 31.6 µM
- GI50 [18]: 21.8 µM
- TGI [18]: > 31.6 µM
- GI50 [19]: 14.9 µM
- TGI [19]: 27.5 µM
- GI50 [21]: 18.1 µM
- TGI [21]: > 31.6 µM
- GI50 [22]: 46.8 µM
- TGI [22]: > 100 µM
- GI50 [23]: 9.89 µM
- TGI [23]: > 31.6 µM
- GI50 [24]: 13.2 µM
- TGI [24]: 23.8 µM
- GI50 [25]: 20.4 µM
- TGI [25]: > 31.6 µM
- GI50 [26]: 26 µM
- TGI [26]: > 100 µM
- GI50 [67]: 16 µM
- TGI [67]: > 31.6 µM
- GI50 [27]: 17.5 µM
- TGI [27]: > 31.6 µM
- GI50 [28]: 15.1 µM
- TGI [28]: 26.4 µM
- GI50 [29]: 14.8 µM
- TGI [29]: 26.4 µM
- GI50 [35]: 18.2 µM
- TGI [35]: 30.9 µM
- GI50 [36]: 21.1 µM
- TGI [36]: > 31.6 µM
- GI50 [37]: 15.1 µM
- TGI [37]: > 31.6 µM
- GI50 [38]: 12.3 µM
- TGI [38]: 24 µM
- GI50 [42]: 49.2 µM
- TGI [42]: > 100 µM
- GI50 [43]: 21.9 µM
- TGI [43]: > 31.6 µM
- GI50 [45]: 16.8 µM
- TGI [45]: > 31.6 µM
- GI50 [46]: 27.3 µM
- TGI [46]: > 31.6 µM
- GI50 [47]: > 31.6 µM
- TGI [47]: > 31.6 µM
- GI50 [48]: 46.3 µM
- TGI [48]: > 100 µM
- GI50 [49]: 19 µM
- TGI [49]: > 31.6 µM
- GI50 [50]: > 31.6 µM
- TGI [50]: > 31.6 µM
- GI50 [51]: > 31.6 µM
- TGI [51]: > 31.6 µM
- GI50 [52]: 40 µM
- TGI [52]: > 88 µM
- GI50 [53]: 17.1 µM
- TGI [53]: > 31.6 µM
- GI50 [54]: 23.7 µM
- TGI [54]: > 31.6 µM
- GI50 [55]: 22 µM
- TGI [55]: > 31.6 µM
- GI50 [56]: > 31.6 µM
- TGI [56]: > 31.6 µM
- GI50 [59]: 18.5 µM
- TGI [59]: > 31.6 µM
- GI50 [61]: 71.6 µM
- TGI [61]: > 100 µM
- GI50 [62]: > 31.6 µM
- TGI [62]: > 31.6 µM
- GI50 [63]: > 31.6 µM
- TGI [63]: > 31.6 µM
- GI50 [64]: > 31.6 µM
- TGI [64]: > 31.6 µM
- GI50 [65]: 17.9 µM
- TGI [65]: > 31.6 µM

Compound: CNC(=S)OCCC(C)CCCC(C)C (stereo not drawn)
- TGI [1]: 30.9 µM
- TGI [2]: 30 µM
- TGI [3]: 32.5 µM
- TGI [4]: 32.8 µM
- TGI [6]: 31.7 µM
- TGI [7]: 40.7 µM
- TGI [9]: 28.9 µM
- TGI [10]: 30.7 µM
- TGI [12]: 31.7 µM
- TGI [13]: 32.2 µM
- TGI [14]: 30.7 µM
- TGI [15]: 27.9 µM
- TGI [16]: 23.6 µM
- TGI [17]: 31.3 µM
- TGI [18]: 34.1 µM
- TGI [21]: 31.3 µM
- TGI [22]: 31.7 µM
- TGI [23]: 30.9 µM
- TGI [24]: 27.8 µM
- TGI [25]: 30 µM
- TGI [26]: 26.2 µM
- TGI [67]: 30.4 µM
- TGI [27]: 35.2 µM
- TGI [28]: 34.9 µM
- TGI [29]: 36.8 µM
- TGI [34]: 27.1 µM
- TGI [36]: 36.6 µM
- TGI [37]: 35.2 µM
- TGI [41]: 30.9 µM
- TGI [42]: 23.9 µM
- TGI [43]: 31.5 µM
- TGI [45]: 26.8 µM
- TGI [46]: 30.3 µM
- TGI [47]: 30.7 µM
- TGI [48]: 36 µM
- TGI [49]: 30.6 µM
- TGI [50]: 26.7 µM
- TGI [51]: 41 µM
- TGI [52]: 31.6 µM
- TGI [53]: 41.6 µM
- TGI [54]: 30.3 µM
- TGI [55]: 33.4 µM
- TGI [56]: 40.6 µM
- TGI [57]: 34.5 µM
- TGI [58]: 31.9 µM
- TGI [59]: 30.7 µM
- TGI [61]: 25.5 µM
- TGI [62]: 30.1 µM
- TGI [63]: 30.1 µM
- TGI [64]: 29.1 µM
- TGI [65]: 20.7 µM
- TGI [66]: 31.1 µM
